Data as given in patent US10597390B2, “Indoles for use in influenza virus infection” (Janssen Sciences Ireland UC, priority 2014, dated 2020).

How the values were obtained:
[1] = system: influenza virus A/Taiwan/1/86 (H1N1); experiment: organism not typed; assay type: cell-based; settings: CPE in MDCK cells, three days post-virus exposure, ATPlite
[2] = system: MDCK cells; settings: dog, 3 days
[3] = in vitro; settings: dog, TOX MDCK CC50

SMILES	IC50 [1] [nM]	melting point [°C]	CC50 [2] [nM]	IC50 ([1]; MDCK, 72 h) [nM]	CC50 at 3 days [3] [nM]
CC(=O)NCc1cc(F)c(N[C@H]2CCC[C@@H](NC(=O)c3cn(C)cn3)C2)nc1-c1c[nH]c2c(F)cc(F)cc12 [Compound 259]	170	> 260	> 25000		
Cn1ccc(C(=O)N[C@@H]2CCC[C@@H](Nc3nc(-c4c[nH]c5c(F)cc(F)cc45)c(C#N)cc3F)C2)n1 [Compound 206]	3		> 25000		
N#Cc1cc(F)c(N[C@H]2C3CCC(CC3)[C@@H]2C(=O)O)nc1-c1c[nH]c2c(F)cc(F)cc12 [Compound 215]	0.8		150		
N#Cc1cc(F)c(N[C@H]2C3CCC(CC3)[C@@H]2C(=O)O)nc1-c1c[nH]c2c(F)cc(F)cc12 (mixture of isomers) [Compound 216]	2		70		
Cc1cc(C(=O)N[C@@H]2CCC[C@H](Nc3nc(-c4c[nH]c5c(F)cc(Cl)cc45)ncc3F)C2)n[nH]1 [Compound 43]		189.2		4	2700
N#Cc1cc(F)c(N[C@@H]2CCC[C@H](NC(=O)N3CCCC3)C2)nc1-c1c[nH]c2c(F)cc(F)cc12 [Compound 163]	720		13200		
O=C(N[C@@H]1CCC[C@H](Nc2nc(-c3c[nH]c4c(F)cc(Cl)cc34)ncc2F)C1)c1ccccn1 (racemic) [Compound 27]	11		9500		
Cc1cc(F)c2[nH]cc(-c3ncc(F)c(NC(CC(=O)O)C(C)(C)C)n3)c2c1 (racemic) [Compound 167]		182		30	3500
CC1(C(CC(N)=O)Nc2nc(-c3c[nH]c4c(F)cc(F)cc34)c(C#N)cc2F)CCCC1 (centres unmarked) [Compound 246]		270.1		610	6900
Cn1ccc(C(C)(C)C(CC(=O)O)Nc2nc(-c3c[nH]c4c(F)cc(F)cc34)c(C#N)cc2F)n1 (centres unmarked) [Compound 236]		246.9		86	1500
O=C(N[C@@H]1CCC[C@H](Nc2nc(-c3c[nH]c4c(F)cc(Cl)cc34)ncc2F)C1)c1cnccn1 [Compound 33]		249.9		7	13800
Cn1ccc(C(=O)N[C@@H]2CCC[C@@H](Nc3nc(-c4c[nH]c5c(F)cc(F)cc45)c(C#N)cc3F)C2)n1 (racemic) [Compound 205]		103		4	> 25000
Cc1cc(C(=O)N[C@@H]2CCC[C@@H](Nc3nc(-c4c[nH]c5c(F)cc(F)cc45)c(C#N)cc3F)C2)on1 [Compound 220]	10		3500		
Cc1cc(F)c2[nH]cc(-c3ncc(F)c(NC(CC(=O)O)C(C)(C)c4ccn(C)n4)n3)c2c1 (centres unmarked) [Compound 234]		208.5		460	> 25000
Cn1nc(C(=O)N[C@@H]2CCC[C@H](Nc3nc(-c4c[nH]c5c(F)cc(Cl)cc45)ncc3F)C2)cc1N [Compound 80]		174.8		4	3900
O=C(N[C@@H]1CCC[C@H](Nc2nc(-c3c[nH]c4c(F)cc(Cl)cc34)ncc2F)C1)c1cccc(O)n1 [Compound 35]		253.4		3	> 19400
Cn1cncc1C(=O)N[C@@H]1CCC[C@H](Nc2nc(-c3c[nH]c4c(F)cc(Cl)cc34)ncc2F)C1 [Compound 64]		291.8		3	> 25000
O=C(O)c1ccccc1C(=O)N[C@@H]1CCC[C@H](Nc2nc(-c3c[nH]c4c(F)cc(F)cc34)ncc2F)C1 (relative stereo) [Compound 224, 2-(((1R*,3S*)-3-((2-(5,7-difluoro-1H-indol-3-yl)-5-fluoropyrimidin-4-yl)amino)cyclohexyl)carbamoyl)benzoic Acid]		201.5		160	> 5000
Cc1[nH]nnc1C(=O)N[C@@H]1CCC[C@H](Nc2nc(-c3c[nH]c4c(F)cc(F)cc34)ncc2F)C1 [Compound 141]		256.6		2	8400

SMILES	IC50 [1] [nM]	melting point [°C]	CC50 [2] [nM]	IC50 ([1]; MDCK, 72 h) [nM]	CC50 at 3 days [3] [nM]
O=C(N[C@@H]1CCC[C@H](Nc2nc(-c3c[nH]c4c(F)cc(Cl)cc34)ncc2F)C1)c1cncnc1 [Compound 53]		> 300		20	> 25000
O=C(O)c1cccnc1C(=O)N[C@@H]1CCC[C@H](Nc2nc(-c3c[nH]c4c(F)cc(F)cc34)ncc2F)C1 [Compound 225]		265.2		9	> 5000
Cc1cn(C)nc1C(=O)N[C@@H]1CCC[C@H](Nc2nc(-c3c[nH]c4c(F)cc(F)cc34)ncc2F)C1 [Compound 136]		265.1		3	7600
Cc1cccnc1C(=O)N[C@@H]1CCC[C@H](Nc2nc(-c3c[nH]c4c(F)cc(F)cc34)ncc2F)C1 [Compound 101]		236		10	> 20700
Cc1cc(F)c2[nH]cc(-c3nc(N[C@@H]4CCC[C@@H](NC(=O)c5cncs5)C4)c(F)cc3C#N)c2c1 (racemic) [Compound 201]		> 250		10	> 21800
Cc1cc(F)c2[nH]cc(-c3ncc(F)c(N[C@H]4C5CCC(CC5)[C@@H]4C(=O)O)n3)c2c1 [Compound 166]		98		6	1000
O=C(N[C@@H]1CCC[C@H](Nc2nc(-c3c[nH]c4c(F)cc(Cl)cc34)ncc2F)C1)c1nnn[nH]1 [Compound 81]		275.1		39	> 25000
O=C(N[C@@H]1CCC[C@H](Nc2nc(-c3c[nH]c4c(F)cc(Cl)cc34)ncc2F)C1)c1ncc[nH]1 [Compound 58]		> 300		1	3500
CC[C@@]1(C(=O)O)CCCC[C@H]1Nc1nc(-c2c[nH]c3c(F)cc(F)cc23)c(C#N)cc1F (relative stereo) [Compound 247, (trans)-2-((5-cyano-6-(5,7-difluoro-1H-indol-3-yl)-3-fluoropyridin-2-yl)-amino)-1-ethylcyclohexanecarboxylic Acid]		254.9		50	400
Cc1ccnc(C(=O)N[C@@H]2CCC[C@H](Nc3nc(-c4c[nH]c5c(F)cc(F)cc45)ncc3F)C2)c1 [Compound 110]		255		3	9600
Cc1cc(C(=O)N[C@@H]2CCC[C@H](Nc3nc(-c4c[nH]c5c(F)cc(F)cc45)ncc3F)C2)on1 (racemic) [Compound 91]	21		18600		
Cc1cnc(C(=O)N[C@@H]2CCC[C@H](Nc3nc(-c4c[nH]c5c(F)cc(Cl)cc45)ncc3F)C2)cn1 (relative stereo) [Compound 11, N-((1R*,3S*)-3-((2-(5-chloro-7-fluoro-1H-indol-3-yl)-5-fluoropyrimidin-4-yl)amino)cyclohexyl)-5-methylpyrazine-2-carboxamide]		251.5		40	9000
N#Cc1cc(F)c2[nH]cc(-c3ncc(F)c(N[C@H]4CCC[C@@H](NC(=O)c5c[nH]nn5)C4)n3)c2c1 [Compound 172]		> 300		2	> 25000
O=C(N[C@@H]1CCC[C@H](Nc2nc(-c3c[nH]c4c(F)cc(F)cc34)ncc2F)C1)c1cnccn1 [Compound 107]		269		45	> 25000
CC(C)(c1cccs1)[C@H](CC(=O)O)Nc1nc(-c2c[nH]c3c(F)cc(F)cc23)ncc1F [Compound 231]		271.1		10	2600
CC1(C(CC(=O)O)Nc2nc(-c3c[nH]c4c(F)cc(F)cc34)c(C#N)cc2F)CCOCC1 (centres unmarked) [Compound 255, 3-((5-cyano-6-(5,7-difluoro-1H-indol-3-yl)-3-fluoropyridin-2-yl)amino)-3-(4-methyltetrahydro-2H-pyran-4-yl)propanoic Acid]		151.1		170	5300
O=C(N[C@@H]1CCC[C@H](Nc2nc(-c3c[nH]c4c(F)cc(F)cc34)ncc2F)C1)C1CCCN1 (some centres unmarked) [Compound 139]		208.1		2000	11500
Cc1cc(F)c2[nH]cc(-c3ncc(F)c(N[C@@H]4CCC[C@@H](NC(=O)c5cn(C)cn5)C4)n3)c2c1 (racemic) [Compound 196]		> 250		21	10300
